A value given as a limit tells only on which side of the number the result lay.

We go through 14 molecules from ChEMBL document CHEMBL2146470, “Novel Carboxamide-Based Allosteric MEK Inhibitors: Discovery and Optimization Efforts toward XL518 (GDC-0973)” (ACS Med Chem Lett, 2012).

In data set [1] the target is Dual specificity mitogen-activated protein kinase kinase 1 (Homo sapiens, UniProt Q02750).
Description: Inhibition of MEK1-mediated ERK2 T202/Y204 phosphorylation using biotinylated MBP as substrate preincubated for 30 mins measured after 100 mins by cRAF-MEK-ERK enzyme coupled assay
Data set [2] concerns the target Dual specificity mitogen-activated protein kinase kinase; MEK1/2 (Homo sapiens, UniProt P36507+Q02750).
Description: Inhibition of MEK-mediated ERK T202/Y204 phosphorylation in human MDA-MB-231T cells after 1 hr by immunoblotting
Data set [3] has as its system Plasma. In words: Drug metabolism in plasma of nude NCr mouse xenografted with human MDA-MB-231T cells assessed as 3,4-difluoro-2-(2-fluoro-4-iodophenylamino)benzoic acid level at 30 mg/kg, po measured after 2 hrs by LC-MS analysis. Also on record: dose 30 mg/kg, route oral. The settings on record: in vivo. The data set is classed as ADME, organism-based.
A short description of data set [4]: Drug metabolism in tumor of nude NCr mouse xenografted with human MDA-MB-231T cells assessed as 3,4-difluoro-2-(2-fluoro-4-iodophenylamino)benzoic acid level at 30 mg/kg, po measured after 24 hrs by LC-MS analysis. The data set is classed as ADME, organism-based, Neoplasm. More on the design: dose 30 mg/kg, route oral. The settings on record: in vivo. Background: Xenograft models place foreign cells or tissue in a host animal.

Data set [5] relates to Plasma. Kind of data set: Drug metabolism in plasma of nude NCr mouse xenografted with human MDA-MB-231T cells assessed as 3,4-difluoro-2-(2-fluoro-4-iodophenylamino)benzoic acid level at 30 mg/kg, po measured after 24 hrs by LC-MS analysis. The data set is classed as ADME, organism-based. More on the design: dose 30 mg/kg, route oral. The settings on record: in vivo.
Data set [6] in a line: Drug metabolism in tumor of nude NCr mouse xenografted with human MDA-MB-231T cells assessed as 3,4-difluoro-2-(2-fluoro-4-iodophenylamino)benzoic acid level at 30 mg/kg, po measured after 2 hrs by LC-MS analysis. The settings on record: in vivo. More on the design: dose 30 mg/kg, route oral. The data set is classed as ADME, organism-based, Neoplasm.
The test system of data set [7] is Brain. Kind of data set: Drug metabolism in brain of nude NCr mouse xenografted with human MDA-MB-231T cells assessed as 3,4-difluoro-2-(2-fluoro-4-iodophenylamino)benzoic acid level at 30 mg/kg, po measured after 24 hrs by LC-MS analysis. The data set is classed as ADME, organism-based. Also on record: dose 30 mg/kg, route oral. The settings on record: in vivo.

Data set [8] relates to Brain. In words: Drug metabolism in brain of nude NCr mouse xenografted with human MDA-MB-231T cells assessed as 3,4-difluoro-2-(2-fluoro-4-iodophenylamino)benzoic acid level at 30 mg/kg, po measured after 2 hrs by LC-MS analysis. The data set is classed as ADME, organism-based. The settings on record: in vivo. Also on record: dose 30 mg/kg, route oral.
Data set [9] deals with Rattus norvegicus. In words: Dose normalised AUC (0 to t) in Sprague-Dawley rat at 5 mg/kg, po. The settings on record: in vivo. The data set is classed as ADME, organism-based. More on the design: dose 5 mg/kg, route oral.
Data set [10] in a line: Drug metabolism in human liver microsomes at 15 uM after 30 mins. The data set is classed as ADME, Microsome. The settings on record: read-out: Drug metabolism. (Liver microsomes are vesicles of endoplasmic reticulum, rich in cytochrome P450 enzymes.)
Data set [11] can be described thus: Apparent permeability across MDCK cells. The data set is classed as ADME, cell-based, Canis lupus familiaris. The settings on record: dog.
A short description of data set [12]: Drug metabolism in rat liver microsomes at 15 uM after 30 mins. The data set is classed as ADME, Microsome. The settings on record: read-out: Drug metabolism.
Data set [13] in a line: Oral bioavailability in Sprague-Dawley rat at 5 mg/kg. The data set is classed as ADME, organism-based. The settings on record: in vivo.
Data set [14] is described as follows: Clearance in Sprague-Dawley rat at 5 mg/kg, po. The data set is classed as ADME, organism-based. Also on record: dose 5 mg/kg, route oral. The settings on record: in vivo.
The nature of data set [15]: Half life in Sprague-Dawley rat at 5 mg/kg, po. The data set is classed as ADME, organism-based. More on the design: dose 5 mg/kg, route oral. The settings on record: in vivo.
Data set [16] concerns Mus musculus. Kind of data set: Inhibition of MEK-mediated ERK T202/Y204 phosphorylation in po dosed nude NCr mouse brain xenografted with human MDA-MB-231T cells from 2 to 24 hrs by immunoblotting. The data set is classed as functional.
The nature of data set [17]: Drug uptake in tumor of nude NCr mouse xenografted with human MDA-MB-231T cells at 30 mg/kg, po measured after 2 hrs by LC-MS analysis. The data set is classed as ADME, organism-based, Neoplasm. The settings on record: read-out: Drug uptake. Also on record: dose 30 mg/kg, route oral.
The nature of data set [18]: Plasma concentration in nude NCr mouse xenografted with human MDA-MB-231T cells at 30 mg/kg, po measured after 2 hrs by LC-MS analysis. More on the design: dose 30 mg/kg, route oral. The data set is classed as ADME, organism-based.
Data set [19] relates to Mus musculus. In words: Inhibition of MEK-mediated ERK T202/Y204 phosphorylation in human MDA-MB-231T cells xenografted in nude NCr mouse tumor at 30 mg/kg, po after 2 hrs by immunoblotting. The data set is classed as functional.
For data set [20], the system named is Mus musculus. Kind of data set: Inhibition of MEK-mediated ERK T202/Y204 phosphorylation in nude NCr mouse brain xenografted with human MDA-MB-231T cells at 30 mg/kg, po after 2 hrs by immunoblotting. The data set is classed as functional.
Data set [21] can be described thus: Drug uptake in brain of nude NCr mouse xenografted with human MDA-MB-231T cells at 30 mg/kg, po measured after 2 hrs by LC-MS analysis. The data set is classed as ADME, organism-based. Also on record: dose 30 mg/kg, route oral. The settings on record: read-out: Drug uptake.
A short description of data set [22]: Drug uptake in brain of nude NCr mouse xenografted with human MDA-MB-231T cells at 30 mg/kg, po measured after 24 hrs by LC-MS analysis. The data set is classed as ADME, organism-based. Also on record: dose 30 mg/kg, route oral. The settings on record: read-out: Drug uptake.
The test system of data set [23] is Mus musculus. Kind of data set: Inhibition of MEK-mediated ERK T202/Y204 phosphorylation in human MDA-MB-231T cells xenografted in nude NCr mouse tumor at 30 mg/kg, po after 24 hrs by immunoblotting. The data set is classed as functional.
Data set [24] in a line: Drug uptake in tumor of nude NCr mouse xenografted with human MDA-MB-231T cells at 30 mg/kg, po measured after 24 hrs by LC-MS analysis. The data set is classed as ADME, organism-based, Neoplasm. Also on record: dose 30 mg/kg, route oral. The settings on record: read-out: Drug uptake.
The nature of data set [25]: Plasma concentration in nude NCr mouse xenografted with human MDA-MB-231T cells at 30 mg/kg, po measured after 24 hrs by LC-MS analysis. The data set is classed as ADME, organism-based. Also on record: dose 30 mg/kg, route oral.
Data set [26] has as its system Mus musculus. In words: Inhibition of MEK-mediated ERK T202/Y204 phosphorylation in nude NCr mouse brain xenografted with human MDA-MB-231T cells at 30 mg/kg, po after 24 hrs by immunoblotting. The data set is classed as functional.

Chain of Dual specificity mitogen-activated protein kinase kinase 1 (Q02750 whole entry): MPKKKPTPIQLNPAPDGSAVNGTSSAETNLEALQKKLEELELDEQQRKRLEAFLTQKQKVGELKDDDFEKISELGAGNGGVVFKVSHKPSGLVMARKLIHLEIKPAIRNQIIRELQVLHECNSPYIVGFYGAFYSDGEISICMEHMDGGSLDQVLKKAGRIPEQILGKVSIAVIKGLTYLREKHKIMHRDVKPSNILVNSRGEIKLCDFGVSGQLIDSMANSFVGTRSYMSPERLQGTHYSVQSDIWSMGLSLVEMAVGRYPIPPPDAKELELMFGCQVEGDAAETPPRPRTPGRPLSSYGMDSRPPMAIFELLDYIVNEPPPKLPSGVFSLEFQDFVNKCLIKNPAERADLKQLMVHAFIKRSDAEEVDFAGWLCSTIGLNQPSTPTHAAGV

By IC50 is commonly meant the point on the concentration scale where inhibition reaches its midpoint. A lower IC50 goes with higher potency. For `O=C(NCCC(O)CO)c1ccc(F)c(F)c1Nc1ccc(I)cc1F` (stereo not drawn), the concentration for half-maximal inhibition (IC50) is 801 nM in data set [1] and 128 nM in data set [2].

For `O=C(O)c1ccc(F)c(F)c1Nc1ccc(I)cc1F`, the Drug metabolism in [3] is 0.01 µM; in [4] it was less than 0.005 µM; in [5], 0.21 µM; in [6], less than 0.005 µM; in [7], less than 0.005 µM; in data set [8], less than 0.005 µM. Moreover, the IC50 in data set [1] was 19.5 nM; in [2] it was 102 nM.

One may read the Papp as the rate of passage across a membrane or cell layer, normalised by area and donor concentration. The CL/F is the apparent clearance, not corrected for the fraction that reaches the circulation. What is called half-life is how long it takes for the measured level to halve. High values mean slow decline, low ones rapid decline. `O=C(c1ccc(F)c(F)c1Nc1ccc(I)cc1F)N1CC(O)C1` yielded an AUCt/dose in data set [9] of 0.05 µM·h/mg/kg. Besides, the metabolised at 0.5 h, 15 µM in data set [10] worked out at 30.8%; in data set [12], 80.1%. Also, in [11], the apparent permeability (Papp) was 39.9 ×10⁻⁶ cm/s. For the same molecule, the bioavailability in data set [13] was determined as 19%. Besides, the CL/F in [14] is 139 mL/min/kg. Besides, the half-life in data set [15] is 1.5 h.

Broadly, the ED50 is the dose at which the effect has come halfway, by size or by number of responders. A high value points to weaker potency. Broadly, the inhibition in vivo is the change of the read-out against control, counted positive when it falls. On to `NCC1(O)CN(C(=O)c2ccc(F)c(F)c2Nc2ccc(I)cc2F)C1`, for which the ED50 in data set [16] is greater than 30 mg/kg. The molecule also came in with an AUCt/dose in data set [9] of 1.57 µM·h/mg/kg. In addition, the half-inhibitory concentration (IC50) in [1] was determined as 6.6 nM; in [2], 57 nM. In addition, the apparent permeability (Papp) in data set [11] came out at 4.3 ×10⁻⁶ cm/s. The concentration at 2 h in data set [17] was 7360 nM; in data set [18], 2400 nM; in data set [21], 730 nM. Besides, the inhibition in vivo at 30 mg/kg is 27% in [19], 23% in [20], 44% in data set [23] and 17% in [26]. Further, the values for the concentration at 24 h in [22], in data set [24] and in data set [25] were 1240 nM, 26800 nM and 30 nM, respectively. Also, the metabolised at 0.5 h, 15 µM in data set [12] amounted to 16.2%. In addition, the bioavailability in data set [13] is 78%. For the same molecule, the apparent clearance (CL/F) in data set [14] is 12.6 mL/min/kg. Besides, the half-life in [15] was 9.1 h.

As to `O=C(c1ccc(F)c(F)c1Nc1ccc(I)cc1F)N1CC(O)(CO)C1`, the results for the IC50 in [1] and in data set [2] were 27 nM and 29 nM, respectively.

As to `NC(=O)C1(O)CN(C(=O)c2ccc(F)c(F)c2Nc2ccc(I)cc2F)C1`, the figures for the IC50 in [1] and in [2] were 220 nM and 81 nM, respectively.

In turn, `CCNCC1(O)CN(C(=O)c2ccc(F)c(F)c2Nc2ccc(I)cc2F)C1` returned an AUCt/dose in [9] of 0.85 µM·h/mg/kg. For the same molecule, the results for the metabolised at 0.5 h, 15 µM in [10] and in [12] were 46.3% and 31.5%, respectively. The apparent permeability coefficient (Papp) in data set [11] was found to be 20.7 ×10⁻⁶ cm/s. Further, the bioavailability in data set [13] turned out to be 101%. In data set [14], the CL/F was 35 mL/min/kg. In data set [15], this molecule had a half-life of 5.4 h.

On to `CC(C)NCC1(O)CN(C(=O)c2ccc(F)c(F)c2Nc2ccc(I)cc2F)C1`, for which the AUCt/dose in data set [9] is 0.25 µM·h/mg/kg. For the same molecule, the metabolised at 0.5 h, 15 µM in data set [10] worked out at 35.8%; in data set [12], 40.5%. For the same molecule, the Papp in [11] stood at 21 ×10⁻⁶ cm/s. Further, the bioavailability in data set [13] was 86%. The molecule further showed a CL/F in [14] of 99.3 mL/min/kg. This molecule also had a half-life in data set [15] of 4.9 h.

`CC(C)(C)NCC1(O)CN(C(=O)c2ccc(F)c(F)c2Nc2ccc(I)cc2F)C1`: the 50% inhibitory concentration (IC50) in [1] was 4.8 nM; in data set [2] it was 11 nM.

In the case of `CN(C)CC1(O)CN(C(=O)c2ccc(F)c(F)c2Nc2ccc(I)cc2F)C1`, the IC50 in data set [1] was 5.1 nM; in data set [2], 14 nM.

On to `O=C(c1ccc(F)c(F)c1Nc1ccc(I)cc1F)N1CC(O)(CN2CCCC2)C1`, for which the half-maximal inhibitory concentration (IC50) amounted to 7.6 nM in data set [1] and 50 nM in data set [2].

`O=C(c1ccc(F)c(F)c1Nc1ccc(I)cc1F)N1CC(O)(CN2CCOCC2)C1`: the half-inhibitory concentration (IC50) is 1710 nM in data set [1] and 331 nM in [2].

`C[C@H](N)C1(O)CN(C(=O)c2ccc(F)c(F)c2Nc2ccc(I)cc2F)C1` gave an AUCt/dose in [9] of 1.03 µM·h/mg/kg. Further, the metabolised at 0.5 h, 15 µM in data set [10] is 2.6%; in data set [12], -4.5%. Also, the IC50 in data set [1] came to 5.2 nM; in data set [2], 46 nM. Further, the apparent permeability (Papp) in data set [11] amounted to 9.9 ×10⁻⁶ cm/s. Besides, in [13], the bioavailability came out at 58%. The CL/F in data set [14] is 13.3 mL/min/kg. The same molecule had a half-life in data set [15] of 11.4 h.

As to `C[C@@H](N)C1(O)CN(C(=O)c2ccc(F)c(F)c2Nc2ccc(I)cc2F)C1`, the IC50 in data set [1] worked out at 16 nM; in [2], 164 nM.
